According to patent US12053452B2 (priority 2021, dated 2024):

Experiments:
[1] = phase 3 trials, MDMA-assisted psychotherapy; cited from earlier work
[2] = human urine, after racemic MDMA; cited from earlier work
BTBR mice = experiment: Sociability test, BTBR; format: in vivo; settings: 3.0 mg/kg IP
Method: This assay was conducted in adult male C57 and BTBR mice (n=6 per group) in a dedicated conditioning room where ambient light, sound, and human contact were tightly controlled. Social preference chambers consist of two polycarbonate boxes (13.5 cm wide×22.5 cm tall×31.0 cm deep), floored with rough-textured black ABS plastic, and connected to one another by a 1.25″ PVC T-junction. An infrared photobeam emitter/detector array is mounted at each intersection of the T-junction and each preference compartment, and as a mouse traversed the apparatus, it would break the photobeam upon entry to or exit from each preference compartment. Beam breaks started or stopped a counter on an interfaced computer, allowing automated collection of time spent in each compartment. At the end of each test, data were reported as time (in seconds) spent in each compartment, the number of entries into each compartment, and the average time spent in each compartment following an entry. Social preference tests were conducted in an iterative manner, with each test subject completing four distinct phases as described below. Between testing sessions, chambers were sanitized by wiping the insides with a disinfectant product provided by the UAMS Department of Laboratory Animal Medicine. […]

SMILES | efficacy to treat Post Traumatic Stress Disorder (PTSD) [1] | enantiomer with higher Cmax [2] | sociability (time spent with the stranger mouse vs dummy) (BTBR mice)
CNC(C)Cc1ccc2c(c1)OCO2 (racemic) [racemic MDMA, 1-(1,3-benzodioxol-5-yl)-N-methylpropan-2-amine] | demonstrated efficacy | Higher R-enantiomer Cmax | –
CN[C@@H](C)Cc1ccc2c(c1)OCO2 [S(+)-MDMA, (2S)-1-(1,3-benzodioxol-5-yl)-N-methylpropan-2-amine] | – | – | did not alter sociability
